Legend:
Test in all cases: BLI
[1] = test system: N59a (DNA, aptamer) CCACCAGGCCAAACACGACCCCAAACA; settings: 150 mM NaCl, 2 mM MgCl2, 50 mM Tris-HCl pH 7.5
[2] = test system: N11 (DNA, aptamer) GAGGCAGCACTTCACACGATCGGACCCAAACTTTACCTTACCCCCATCTGCGTAATGACTGTAGTGATG; settings: 150 mM NaCl, 2 mM MgCl2; 50 mM Tris-HCl pH 7.5
[3] = test system: N16 (DNA, aptamer) GAGGCAGCACTTCACACGATATTTGGGGATCAGCCAGGTCAGTGCCACTGCGTAATGACTGTAGTGATG; settings: 150 mM NaCl, 2 mM MgCl2; 50 mM Tris-HCl pH 7.5
[4] = test system: N50 (DNA, aptamer) GAGGCAGCACTTCACACGATCGTCCCTGCCCCTGCCTCCTTTCTATGCTGCGTAATGACTGTAGTGATG; settings: 150 mM NaCl, 2 mM MgCl2; 50 mM Tris-HCl pH 7.5
[5] = test system: N59 (DNA, aptamer) GAGGCAGCACTTCACACGATCCACCAGGCCAAACACGACCCCAAACACTGCGTAATGACTGTAGTGATG; settings: 150 mM NaCl, 2 mM MgCl2; 50 mM Tris-HCl pH 7.5
[6] = test system: N41 (DNA, aptamer) GAGGCAGCACTTCACACGATCCCCCCCACACTCTTCCAACCCCCTCTCTGCGTAATGACTGTAGTGATG; settings: 150 mM NaCl, 2 mM MgCl2; 50 mM Tris-HCl pH 7.5

KD [1] [µM] | KD [2] [µM] | KD [3] [µM] | KD [4] [µM] | KD [5] [µM] | KD [6] [µM] | KD ([1]; Table S3 prints 64 nM) [µM] | Compound
30.5 |  |  |  |  |  |  | C=C1[C@@H](O)[C@@H]2O[C@]3(CC[C@H](/C=C/[C@@H](C)[C@@H]4CC(C)=C[C@@]5(O[C@H](C[C@@](C)(O)C(=O)O)CC[C@H]5O)O4)O3)CC[C@H]2O[C@@H]1[C@@H](O)C[C@H](C)[C@H]1O[C@@]2(CCCCO2)CC[C@H]1C
 | 0.498 | 0.729 | 2.57 | 0.17 | 1890 | 0.064 | C=C1[C@@H](O)[C@@H]2O[C@]3(CC[C@H](/C=C/[C@@H](C)[C@@H]4CC(C)=C[C@@]5(O[C@H](C[C@@](C)(O)C(=O)O)CC[C@H]5O)O4)O3)CC[C@H]2O[C@@H]1[C@@H](O)C[C@H](C)[C@H]1O[C@@]2(CC[C@H]1C)OCCC[C@H]2C
